By pKi is commonly meant the negative decadic logarithm of the Ki, by convention in mol/L.

pKi: −log10 of the molar value. Where a name gives a salt, the structure may show the parent alone.

The target of assay [1] is T1, human adenosine A2a receptor (Homo sapiens, UniProt P29274).
T1 construct: expressed in transfected cells; host or cells: CHO-K1
Briefly: Adenosine A2a Receptor Functional Assay (A2AGAL2). The note with it: CHO-K1 cells, cAMP inducible beta-galactosidase reporter, 15 nM NECA agonist challenge. The assay is classed as cell-based. How it is done: Adenosine A2a Receptor Functional Assay (A2AGAL2)
To initiate the functional assay, cryopreserved CHO-K1 cells overexpressing the human adenosine A2a receptor and containing a cAMP inducible beta-galactosidase reporter gene were thawed, centrifuged, DMSO containing media removed, and then seeded with fresh culture media into clear 384-well tissue culture treated plates (BD #353961) at a concentration of 10K cells/well. Prior to assay, these plates were cultured for two days at 37° C., 5% CO2, 90% Rh. On the day of the functional assay, culture media was removed and replaced with 45 uL assay medium (Hams/F-12 Modified (Mediatech #10-080CV) supplemented w/0.1% BSA). Test compounds were diluted and 11 point curves created at a 1000× concentration in 100% DMSO. Immediately after addition of assay media to the cell plates, 50 nL of the appropriate test compound antagonist or agonist control curves were added to cell plates using a Cartesian Hummingbird. Compound curves were allowed to incubate at room temperature on cell plates for approximately 15 minutes before addition of a 15 nM NECA (Sigma E2387) agonist challenge (5 uL volume). A control curve of NECA, a DMSO/Media control, and a single dose of Forskolin (Sigma F3917) were also included on each plate. After additions, cell plates were allowed to incubate at 37° C., 5% CO2, 90% Rh for 5.5-6 hours. After incubation, media was removed, and cell plates were washed 1×50 uL with DPBS w/o Ca & Mg (Mediatech 21-031-CV). Into dry wells, 20 uL of 1× Reporter Lysis Buffer (Promega E3971 (diluted in dH2O from 5× stock)) was added to each well and plates frozen at −20° C. overnight. For β-galactosidase enzyme colorimetric assay, plates were thawed out at room temperature and 20μL 2× assay buffer (Promega) was added to each well. Color was allowed to develop at 37° C., 5% CO2, 90% Rh for 1-1.5 h or until reasonable signal appeared. The calorimetric reaction was stopped with the addition of 60 μL/well 1M sodium carbonate. Plates were counted at 405 nm on a SpectraMax Microplate Reader (Molecular Devices). Data was analyzed in Microsoft Excel and IC/EC50 curves were fit using a standardized macro.

In assay [2] the target is T2, human adenosine A1 receptor (Homo sapiens, UniProt P30542).
T2 construct: expressed in transfected cells; host or cells: CHO-K1
T2 sequence (P30542 1-326): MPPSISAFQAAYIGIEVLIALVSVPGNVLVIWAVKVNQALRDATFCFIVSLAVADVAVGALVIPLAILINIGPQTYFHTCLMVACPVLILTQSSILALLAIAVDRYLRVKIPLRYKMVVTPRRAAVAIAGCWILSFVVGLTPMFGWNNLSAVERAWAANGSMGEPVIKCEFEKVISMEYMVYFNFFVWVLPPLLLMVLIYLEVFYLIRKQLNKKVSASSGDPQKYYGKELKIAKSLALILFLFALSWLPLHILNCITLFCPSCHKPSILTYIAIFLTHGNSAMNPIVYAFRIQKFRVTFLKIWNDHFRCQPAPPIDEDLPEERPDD
Briefly: Adenosine A1 Receptor Functional Assay (A1GAL2). The class given is cell-based. The note with it: CHO-K1 cells, cAMP inducible beta-galactosidase reporter, 4 nM r-PIA/1 uM Forskolin agonist challenge. The protocol:
Adenosine A1 Receptor Functional Assay (A1GAL2)
To initiate the functional assay, cryopreserved CHO-K1 cells overexpressing the human adenosine A1 receptor and containing a cAMP inducible beta-galactosidase reporter gene were thawed, centrifuged, DMSO containing media removed, and then seeded with fresh culture media into clear 384-well tissue culture treated plates (BD #353961) at a concentration of 10K cells/well. Prior to assay, these plates were cultured for two days at 37° C., 5% CO2, 90% Rh. On the day of the functional assay, culture media was removed and replaced with 45 uL assay medium (Hams/F-12 Modified (Mediatech #10-080CV) supplemented w/0.1% BSA). Test compounds were diluted and 11 point curves created at a 1000× concentration in 100% DMSO. Immediately after addition of assay media to the cell plates, 50 nL of the appropriate test compound antagonist or agonist control curves were added to cell plates using a Cartesian Hummingbird. Compound curves were allowed to incubate at room temperature on cell plates for approximately 15 minutes before addition of a 4 nM r-PIA (Sigma P4532)/1 uM Forskolin (Sigma F3917) agonist challenge (5 uL volume). A control curve of r-PIA in 1 uM Forskolin, a DMSO/Media control, and a single dose of Forskolin were also included on each plate. After additions, cell plates were allowed to incubate at 37° C., 5% CO2, 90% Rh for 5.5-6 hours. After incubation, media was removed, and cell plates were washed 1×50 uL with DPBS w/o Ca & Mg (Mediatech 21-031-CV). Into dry wells, 20 uL of 1× Reporter Lysis Buffer (Promega E3971 (diluted in dH2O from 5× stock)) was added to each well and plates frozen at −20° C. overnight. For β-galactosidase enzyme colorimetric assay, plates were thawed out at room temperature and 20 μL 2× assay buffer (Promega) was added to each well. Color was allowed to develop at 37° C., 5% CO2, 90% Rh for 1-1.5 h or until reasonable signal appeared. The colorimetric reaction was stopped with the addition of 60 μL/well 1M sodium carbonate. Plates were counted at 405 nm on a SpectraMax Microplate Reader (Molecular Devices). Data was analyzed in Microsoft Excel and IC/EC50 curves were fit using a standardized macro.

T1 sequence (P29274 whole entry): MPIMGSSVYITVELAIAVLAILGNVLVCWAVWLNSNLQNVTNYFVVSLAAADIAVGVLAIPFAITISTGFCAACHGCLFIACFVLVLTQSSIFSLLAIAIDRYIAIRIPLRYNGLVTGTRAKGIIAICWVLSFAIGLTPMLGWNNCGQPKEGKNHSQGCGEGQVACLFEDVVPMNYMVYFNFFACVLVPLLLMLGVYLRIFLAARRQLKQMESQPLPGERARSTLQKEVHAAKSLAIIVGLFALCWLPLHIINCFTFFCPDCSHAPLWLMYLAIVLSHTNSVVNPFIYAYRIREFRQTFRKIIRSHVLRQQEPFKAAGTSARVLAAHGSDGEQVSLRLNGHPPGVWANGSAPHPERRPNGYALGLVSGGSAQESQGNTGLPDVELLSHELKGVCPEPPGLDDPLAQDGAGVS

For `Nc1nc(-c2ncco2)nc2sc(Cc3cccnc3)cc12` [Example 18, 2-Oxazol-2-yl-6-pyridin-3-ylmethyl-thieno[2,3-d]pyrimidin-4-ylamine], the pKi is 7.52 in assay [1] and 6.31 in assay [2].
For `Nc1nc(-c2ccc(C(F)F)o2)nc2sc(C(O)c3ncccc3O)cc12` (stereo not shown) [Example 34, 2-{[4-Amino-2-(5-difluoromethyl-furan-2-yl)-thieno[2,3-d]pyrimidin-6-yl]-hydroxy-methyl}-pyridin-3-ol], in that order: 8.37 and 6.96.
Consider “6-(6-Chloro-pyridin-3-ylmethyl)-2-(5-methyl-furan-2-yl)-thieno[2,3-d]pyrimidin-4-ylamine [Example 1]”, for which the pKi in assay [1] is 6.90; in assay [2] it was 5.80.
The like results for `Nc1nc(-c2ccc(C(F)F)o2)nc2sc(C(=O)c3ncccc3F)cc12` [Example 25, [4-Amino-2-(5-difluoromethyl-furan-2-yl)-thieno[2,3-d]pyrimidin-6-yl]-(3-fluoro-pyridin-2-yl)-methanone] were, in that order, 7.60 and 6.08.
For `Nc1nc(-c2ccc(C(F)F)o2)nc2sc(C(O)c3ncccc3F)cc12` (stereo not shown) [Example 23, [4-Amino-2-(5-difluoromethyl-furan-2-yl)-thieno[2,3-d]pyrimidin-6-yl]-(3-fluoro-pyridin-2-yl)-methanol], in that order: 8.42 and 7.23.
On to `Cc1csc(-c2nc(N)c3cc(Cc4ccccn4)sc3n2)n1` [Example 17, 2-(4-Methyl-thiazol-2-yl)-6-pyridin-2-ylmethyl-thieno[2,3-d]pyrimidin-4-ylamine], for which the pKi in assay [1] was 8.15; in assay [2], 7.00.
The like results for `Nc1nc(-c2ccc(C(F)F)o2)nc2sc(Cc3ncccc3Br)cc12` [Example 33, 6-(3-Bromo-pyridin-2-ylmethyl)-2-(5-difluoromethyl-furan-2-yl)-thieno[2,3-d]pyrimidin-4-ylamine] were, in that order, 8.66 and 7.67.
For `COc1cccnc1C(O)c1cc2c(N)nc(-c3ccc(C(F)F)o3)nc2s1` (stereo not shown) [Example 29, [4-Amino-2-(5-difluoromethyl-furan-2-yl)-thieno[2,3-d]pyrimidin-6-yl]-(3-methoxy-pyridin-2-yl)-methanol], in that order: 8.62 and 7.60.
For `Nc1nc(-c2ccc(C(F)F)o2)nc2sc(C(O)c3ccccn3)cc12` (stereo not shown) [Example 31, [4-Amino-2-(5-difluoromethyl-furan-2-yl)-thieno[2,3-d]pyrimidin-6-yl]-pyridin-2-yl-methanol], in that order: 8.32 and 7.33.
Consider `Nc1nc(-c2ncco2)nc2sc(Cc3ccccn3)cc12` [Example 3, 2-Oxazol-2-yl-6-pyridin-2-ylmethyl-thieno[2,3-d]pyrimidin-4-ylamine hydrochloride], for which the pKi in assay [1] was 8.18; in assay [2], 6.45.
For `Nc1nc(-c2ccc(C3CC3)o2)nc2sc(Cc3cccnc3)cc12` [Example 19, 2-(5-Cyclopropyl-furan-2-yl)-6-pyridin-3-ylmethyl-thieno[2,3-d]pyrimidin-4-ylamine], in that order: 6.39 and 6.24.
As to `Nc1nc(-c2cnco2)nc2sc(Cc3ccccn3)cc12` [Example 15, 2-Oxazol-5-yl-6-pyridin-2-ylmethyl-thieno[2,3-d]pyrimidin-4-ylamine], the results for the pKi in assay [1] and in assay [2] were 8.01 and 6.76, respectively.
The like results for `Nc1nc(-c2ccc(C(F)F)o2)nc2sc(C(O)c3ncccc3Br)cc12` (stereo not shown) [Example 32, [4-Amino-2-(5-difluoromethyl-furan-2-yl)-thieno[2,3-d]pyrimidin-6-yl]-(3-bromo-pyridin-2-yl)-methanol] were, in that order, 8.79 and 7.63.
Consider `Nc1nc(-c2ccc(C(F)F)o2)nc2sc(Cc3ncccc3F)cc12` [Example 24, 2-(5-Difluoromethyl-furan-2-yl)-6-(3-fluoro-pyridin-2-ylmethyl)-thieno[2,3-d]pyrimidin-4-ylamine], for which the results for the pKi in assay [1] and in assay [2] were 8.21 and 7.03, respectively.

The values above are taken from patent US20100093756A1, “HETEROARYL SUBSTITUTED THIENO[2,3-d]PYRIMIDINE AND THEIR USE AS ADENOSINE A2a RECEPTOR ANTAGONISTS” (priority 2008, published 2010).
